Article PMC4705659, “Functional dichotomy in the 16S rRNA (m^1A1408) methyltransferase family and control of catalytic activity via a novel tryptophan mediated loop reorganization” (Nucleic Acids Research, 2015)

How the values were obtained:
CacKam [1] = target: T1, CacKam (Catenulispora acidiphila, UniProt C7Q5P8, W113F); test: biochemical; assay type: binding
T1 construct: gene Caci_9046; full length 250 residues, N-terminal hexahistidine tag with thrombin site kept; E. coli BL21 (DE3)
Text: (§1) isothermal titration calorimetry on CacKam

CacKam [2] = target: T2, CacKam (Catenulispora acidiphila, UniProt C7Q5P8, W203A); test: biochemical; assay type: binding
T2 construct: gene Caci_9046; full length 250 residues, N-terminal hexahistidine tag with thrombin site kept; E. coli BL21 (DE3)
T2 sequence (C7Q5P8 entry or part of it W203A): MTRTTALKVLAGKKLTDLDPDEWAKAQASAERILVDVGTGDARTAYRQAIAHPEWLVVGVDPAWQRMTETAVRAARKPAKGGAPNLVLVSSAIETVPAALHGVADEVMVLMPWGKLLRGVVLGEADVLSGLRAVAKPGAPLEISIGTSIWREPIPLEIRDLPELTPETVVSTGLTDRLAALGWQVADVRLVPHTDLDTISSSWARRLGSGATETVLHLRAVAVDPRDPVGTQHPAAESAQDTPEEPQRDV
Text: as §1

CacKam [3] = target: T3, CacKam (Catenulispora acidiphila, UniProt C7Q5P8); settings: 1 mM SAM; E. coli 30S subunits; 10 mM MgCl2; pH 7.5; 37 °C
T3 construct: gene Caci_9046
T3 sequence (C7Q5P8 entry or part of it): as the sequence (C7Q5P8 entry or part of it W203A) above

CacKam [4] = target: T4, CacKam (Catenulispora acidiphila, UniProt C7Q5P8, S201A); test: biochemical
T4 construct: gene Caci_9046
T4 sequence (C7Q5P8 entry or part of it S201A): as the sequence (C7Q5P8 entry or part of it W203A) above

CacKam [5] = target: T5, CacKam (Catenulispora acidiphila, UniProt C7Q5P8, E94A); test: biochemical
T5 construct: gene Caci_9046
T5 sequence (C7Q5P8 entry or part of it E94A): as the sequence (C7Q5P8 entry or part of it W203A) above

T1 sequence (C7Q5P8 entry or part of it W113F): as the sequence (C7Q5P8 entry or part of it W203A) above

Row | SMILES | Kd (CacKam [1]) [µM] | Kd (CacKam [2]) [µM] | 30S methylation, reverse transcription primer extension (CacKam [3]) | Kd (CacKam [4]) [µM] | Kd (CacKam [5]) [µM]
1 | Nc1ncnc2c1ncn2[C@@H]1O[C@H](CSCC[C@H](N)C(=O)O)[C@@H](O)[C@H]1O [SAH] | 11 | 5.1 |  |  | 
2 | C[S+](CC[C@H](N)C(=O)O)C[C@H]1O[C@@H](n2cnc3c(N)ncnc32)[C@H](O)[C@@H]1O (stereo partly shown) [SAM] | 103 | 68 | Methylation by the wild-type enzyme was essentially the same under each condition as expected | 110 | 29
